Entries after “also recorded” stand apart in the source; their conditions may differ.
Experiments:
[1] = test system: 3T3-L1 adipocytes; assay: cAMP levels in 3T3-L1 adipocytes; type: cell-based
Method: (§1) (A) Glycerol release from 3T3-L1 adipocytes treated with or without different concentrations of TNFα as indicated for 24 hr followed by treatment with or without 10 μM ISO or 50 μM FSK. (B) cAMP levels from 3T3-L1 adipocytes treated with or without 100 ng/ml TNFα for 24 hr followed by treatment with or without 10 μM ISO or 50 μM FSK in the presence or absence of pretreatment of 50 μM Amlexanox (Am). (C) cAMP levels from 3T3-L1 adipocytes treated with or without 100 ng/ml TNFα for 24 hr followed by treatment with or without 50 μM FSK in the presence or absence of pretreatment of 1 μM CAY10576 (CAY). (D) Immunoblots of whole cell lysates from 3T3-L1 adipocytes treated with or without different concentrations of TNFα as same as FIG. 2A for 24 hr followed by treatment with or without 10 μM ISO or 50 μM FSK. Results were replicated in multiple experiments. ‘[’ indicates total HSL. ‘n.s.’ represents non-specific band. Arrow indicates CGI-58. (E) Immunoblots of whole cell lysates from 3T3-L1 adipocytes treated with or without 50 ng/ml TNFα or 100 μg/ml poly (I:C) for 24 hr followed by treatment with or without 10 μM ISO for 15 min in the presence or absence of pretreatment with increasing concentrations (0, 10, 50, and 200 μM) of amlexanox for 30 min.
(A) cAMP levels from 3T3-L1 adipocytes expressing empty vector, Flag-IKKε, or Flag-TBK1 treated with or without 50 μM FSK, 250 μM IBMX, or together for 15 min. (B) cAMP levels from 3T3-L1 adipocytes expressing empty vector, Flag-IKKε, or Flag-TBK1 treated with or without 10 μM ISO or 50 μM FSK together with or without 10 μM Zardaverine (Zarda) for 15 min. (C) 32P phospho-image of in vitro kinase reaction using either immunoprecipitated HA-PDE3B from HEK293T cells or 1 μg MBP (myelin basic protein) as a substrate with recombinant kinases as indicated. (D) Immunoblots of immunoprecipitation with anti-HA antibodies followed by treatment with or without CIP (top panel) and whole cell lysates (bottom panel) from Cos-1 cells co-expressing HA-PDE3B with Flag-IKKε/TBK1 or Flag-IKKε/TBK1 K38A. D.E. stands for dark exposure and L.E. stands for light exposure. (E) Immunoblots of GST-14-3-3 pulldown from HEK293T cells co-expressing HA-PDE3B with Flag-TBK1 or Flag-TBK1 K38A.
Obesity is accompanied by infiltration of proinflammatory macrophages into adipose tissue; these cells secrete inflammatory cytokines, such as TNFα, which generate insulin resistance by stimulating catabolic pathways (Hotamisligil, 2006; Lumeng et al., 2007; Ye and Keller, 2010; Ouchi et al., 2011; herein incorporated by reference in their entireties). Although TNFα is known to increase lipolysis in adipocytes (Zhang et al., 2002; Souza et al., 2003; Green et al., 2004; Plomgaard et al., 2008; herein incorporated by reference in their entireties), there is also evidence of a counterinflammatory response in obesity that may serve to repress energy expenditure (Gregor and Hotamisligil, 2011; Saltiel, 2012; Calay and Hotamisligil, 2013; Reilly et al., 2013; herein incorporated by reference in their entireties). Experiments were conducted during development of embodiments of the present invention using TNFα to model the inflammatory milieu of obese adipose tissue in cell culture to determine whether the cytokine might also regulate β-adrenergic signaling in this context. While short-term treatment with TNFα augmented the increase in cAMP produced by forskolin treatment, this effect declined after 12 hr. […] Thus, the catabolic effects of the proinflammatory cytokine TNFα in adipocytes are transient and followed by an inhibitory phase.
Treatment of 3T3-L1 adipocytes with TNFα for 24 hr induced the expression of IKKε and increased TBK1 phosphorylation at the active site in a manner that was dependent on the activity of IKKβ and the NFκB pathway (Reilly et al., 2013; herein incorporated by reference in its entirety). […]

[2] = test system: 3T3-L1 adipocytes; assay: Immunoblots of β-adrenergic/PKA signaling (HSL, perilipin, PKA substrate, p38 phosphorylation) in 3T3-L1 adipocytes; type: cell-based
Method: as §1, with “Results were replicated in multiple experiments. ‘[’ indicates total HSL. ‘n.s.’ represents non-specific band.” left out
Experiments were conducted during development of embodiments of the present invention to determine whether the repression of β-adrenergic sensitivity produced by longer-term treatment with TNFα is due to increased activity of the noncanonical IKKs.

Molecule | rescue of TNFα-decreased isoproterenol- and forskolin-stimulated cAMP production ([1]; preincubation with 50 μM amlexanox, 100 ng/ml TNFα 24 hr, 10 μM ISO or 50 μM FSK) | effect on TNFα inhibition of isoproterenol-stimulated β-adrenergic signaling (phospho-PKA substrate, phospho-HSL, phospho-perilipin) ([2]; amlexanox pretreatment 0, 10, 50, 200 μM for 30 min, 50 ng/ml TNFα 24 hr, 10 μM ISO 15 min) | phosphorylation of p38 in response to isoproterenol ([2]; amlexanox pretreatment 0, 10, 50, 200 μM, dose-dependent) | effect on Poly (I:C) inhibition of sensitivity to isoproterenol stimulation ([2]; amlexanox pretreatment, 100 μg/ml poly (I:C) 24 hr, less than with TNFα) | isoproterenol- and forskolin-stimulated cAMP production ([1]; TNFα for 24 hr (100 ng/ml), 10 μM ISO or 50 μM FSK) | increase in cAMP produced by forskolin treatment ([1]; short-term treatment with TNFα) | isoproterenol-stimulated β-adrenergic signaling (phosphorylation of HSL, perilipin, PKA substrate motif proteins) ([2]; TNFα for 24 hr, 10 μM ISO)
CC(C)c1ccc2oc3nc(N)c(C(=O)O)cc3c(=O)c2c1 [amlexanox, 2-amino-7-isopropyl-1-azaxanthone-3-carboxylic acid; 2-amino-7-isopropyl-5-oxo-5H-chromeno[2,3-b]pyridine-3-carboxylic acid] | largely rescued | blocked the inhibitory effect of TNFα | dramatically augmented | partially restored |  |  | 
TNFα |  |  |  |  | inhibited the production of the second messenger; also recorded: decreased isoproterenol- and forskolin-stimulated cAMP production | augmented | decreased
